Literature values, collected in patent publication US20060257434A1, “Production of emulsions of pharmaceutical compositions” (priority 2005, published 2006).

Conditions: over a physiological pH range

solubility: less than 1 μg/ml
SMILES: CCCn1c(=O)c2[nH]c(C34CC5CC(CC3C5)C4)nc2n(CCC)c1=O [KW-3902, 8-(3-noradamantyl)-1,3-dipropylxanthine]
